Measurements as given in patent US7371745B2, “Bis-transition-metal-chelate probes” (Rutgers, The State University of New Jersey, priority 2002, dated 2008).
Where “and” joins values, the source holds several entries; their conditions need not be identical. Equal entries are not always repeated.

How the values were obtained:
[1] = Spectroscopic properties of the fluorochromes; format: physicochemical
[2] = target: CAP-His6 (Escherichia coli, UniProt P0ACJ8); conditions: control titration with CAP (no His6 tag)
Description: Formation of a complex of the probe with a His6-tagged protein was detected as an increase in fluorescence anisotropy, A, arising from the increase in molecular size and corresponding decrease in rotational dynamics.
Reaction mixtures were titrated with 0-3 μM CAP-His6 (or CAP) by successive addition of 0.5-4 μl aliquots of 2-4 μM CAP-His6 (or CAP) in the same buffer. Fluorescence anisotropy was determined at the start of the titration and 5 min after each successive addition in the titration. All solutions were maintained at 25° C.
Fluorescence measurements were performed using a commercial steady-state fluorescence instrument (QM-1, PTI) equipped with T-format Glan-Thompson polarizers (PTI). […] Slit widths were 10 nm. Fluorescence emission intensities were corrected for background by subtraction of fluorescence emissions intensities for control reactions containing identical concentrations of CAP-His6 or CAP but not containing probe.
Fluorescence anisotropy, A, was calculated using: A=(IVV−GIVH)/(IVV+2GVH) where IVV and IVH are the fluorescent intensities with the excitation polarizer at a vertical position and the emission polarizers at vertical and horizontal positions, respectively, and G is the grating correction factor. […] Equilibrium dissociation constants were calculated using linear regression.

[3] = target: T1, (CAP-His6)-DNA^F complex (Escherichia coli, UniProt P0ACJ8); conditions: control titration with the CAP-DNA^F complex
Description: FRET assays using the probes according to the invention then were performed to verify interactions, to detect a target material, and to measure an intermolecular distance.
Reaction mixtures (200 μl, in 50 μl quartz micro-cuvettes (Starna)) contained 5 nM DNA^F and 50 nM CAP-His6 (or CAP) in buffer C. […] Fluorescence emission was determined at the start of the titration and 5 min after each successive addition in the titration. All solutions were maintained at 25° C.
Fluorescence emission intensities, F, were measured using a commercial steady-state fluorescence instrument (QM-1, PTI) equipped with T-format Glan-Thompson polarizers (PTI) set at 54.7° (“magic angle”).
Data were plotted as E vs. titrant concentration, and binding curves and equilibrium dissociation constants were calculated using non-linear regression (as described in Gunasekera, A. et al., J. Biol. Chem., 267:14,713-14,720 (1992)).

[4] = target: T1, (CAP-His6)-DNA^F complex; conditions: for donor-acceptor distance, R: fluorescein on DNA^F to probe on His6 of CAP-His6

T1 sequence (P0ACJ8 2-210, added parts left off, one chain of several): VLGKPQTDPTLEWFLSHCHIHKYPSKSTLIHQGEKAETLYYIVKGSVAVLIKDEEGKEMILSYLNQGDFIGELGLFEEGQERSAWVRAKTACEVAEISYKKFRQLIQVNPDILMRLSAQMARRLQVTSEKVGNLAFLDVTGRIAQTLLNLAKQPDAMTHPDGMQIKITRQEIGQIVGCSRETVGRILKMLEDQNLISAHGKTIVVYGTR
CAP-His6, sequence (P0ACJ8 2-210, added parts left off): as the sequence (P0ACJ8 2-210, added parts left off, one chain of several) above

Substance | quantum yield (Q) [1] | λmax, em [1] [nm] | λmax, exc [1] [nm] | specificity [2] [%] | specificity [3] [%] | donor-acceptor distance, R [4] [Å] | efficiency of FRET at saturation, Esat ([4]; fluorescein donor on DNA^F, probe as acceptor)
(Ni^2+-NTA)2-Cy3 | 0.04 | 565 | 552 | > 95 | > 95 | 58 | –
(Ni^2+-NTA)2-Cy5 | 0.05 | 668 | 650 | > 95 | > 95 | 53 | 0.45 and 0.25
